This is an account of results in US12662489B2 (Sitryx Therapeutics Limited, priority 2023, dated 2026).

Test [1] deals with T1, MTHFD1 recombinant human enzyme (Homo sapiens, UniProt P11586).
T1 sequence (P11586 2-291 limits assumed): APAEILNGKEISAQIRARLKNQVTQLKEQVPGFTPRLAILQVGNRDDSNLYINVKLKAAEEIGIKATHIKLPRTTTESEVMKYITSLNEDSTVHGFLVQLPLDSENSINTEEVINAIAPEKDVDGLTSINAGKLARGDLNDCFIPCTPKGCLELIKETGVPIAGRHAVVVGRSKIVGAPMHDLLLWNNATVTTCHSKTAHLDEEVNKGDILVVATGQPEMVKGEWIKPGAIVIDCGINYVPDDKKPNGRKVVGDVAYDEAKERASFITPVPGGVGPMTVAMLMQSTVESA
Description: MTHFD1 inhibition assay (NAD(P)H-Glo luminescence). The conditions noted are these: MTHFD1 IC50, recombinant human enzyme 200 nM, NADP, band.

Test [2] has as its target T2, MTHFD2 recombinant human enzyme (Homo sapiens, UniProt P13995).
T2 sequence (P13995 36-350): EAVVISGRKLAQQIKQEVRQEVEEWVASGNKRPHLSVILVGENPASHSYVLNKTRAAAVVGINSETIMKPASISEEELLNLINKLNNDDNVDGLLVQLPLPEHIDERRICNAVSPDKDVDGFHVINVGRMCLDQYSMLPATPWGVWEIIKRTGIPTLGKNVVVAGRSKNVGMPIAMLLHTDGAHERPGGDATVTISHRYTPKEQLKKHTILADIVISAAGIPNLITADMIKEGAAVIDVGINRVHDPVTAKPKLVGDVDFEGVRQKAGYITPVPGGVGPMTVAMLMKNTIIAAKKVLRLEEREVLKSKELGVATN
Nature of the test: MTHFD2 inhibition assay (NAD(P)H-Glo luminescence). The following applies: for MTHFD1/MTHFD2 IC50 ratio: selectivity of MTHFD2 inhibition over MTHFD1, band.

Test [3] relates to human CD4+ T cells. Description: Human CD4+ T-cell proliferation assay (CFSE, CD3/28 beads). The conditions noted are these: read-out: Proliferation IC50.

For the compound `COC[C@H]1CN(c2ccc3c4c(c(=O)oc3c2C)CN(C(=O)c2ccc(C(=O)NS(=O)(=O)C3(C)CC3)c(N3CCCC3)c2)CC4)CCN1C` [Example 15, (R)-4-(8-(3-(methoxymethyl)-4-methylpiperazin-1-yl)-7-methyl-5-oxo-1,3,4,5-tetrahydro-2H-chromeno[3,4-c]pyridine-3-carbonyl)-N-((1-methylcyclopropyl)sulfonyl)-2-(pyrrolidin-1-yl)benzamide], the IC50 was in the range of 10 to 100 nM in test [1], 10 to 100 nM in test [2] and 1 to 10 nM in test [3]. In addition, the “MTHFD1/MTHFD2 IC50 ratio” value in test [2] is on record as “F (<3)”.
As to `COC[C@H]1CN(c2ccc3c4c(c(=O)oc3c2C)CN(C(=O)c2cc(F)c(C(=O)NS(=O)(=O)C3(C)CC3)c(N3C5CCC3CC5)c2)CC4)CCN1C` [Example 22, (R)-2-(7-azabicyclo[2.2.1]heptan-7-yl)-6-fluoro-4-(8-(3-(methoxymethyl)-4-methylpiperazin-1-yl)-7-methyl-5-oxo-1,3,4,5-tetrahydro-2H-chromeno[3,4-c]pyridine-3-carbonyl)-N-((1-methylcyclopropyl)sulfonyl)benzamide], the IC50 in test [1] was in the range of 1 to 10 nM; in test [2], 1 to 10 nM; in test [3], 10 to 30 nM. For the same compound, in test [2], the “MTHFD1/MTHFD2 IC50 ratio” value is given as “F (<3)”.
On to `COC[C@H]1CN(c2ccc3c4c(c(=O)oc3c2C)CN(C(=O)c2ccc(C(=O)NS(=O)(=O)N(C)C)c(OC3CCC3)c2F)CC4)CCN1C` [Example 50, (R)-2-cyclobutoxy-N-(N,N-dimethylsulfamoyl)-3-fluoro-4-(8-(3-(methoxymethyl)-4-methylpiperazin-1-yl)-7-methyl-5-oxo-1,3,4,5-tetrahydro-2H-chromeno[3,4-c]pyridine-3-carbonyl)benzamide], for which the IC50 in test [1], in test [2] and in test [3] was 1 to 10 nM each time. Also, the “MTHFD1/MTHFD2 IC50 ratio” value in test [2] was “F (<3)”.
For the compound `COC[C@H]1CN(c2cc(C)c3c4c(c(=O)oc3c2C)CN(C(=O)c2ccc(C(=O)NS(=O)(=O)N3CCCC3)c(N3CCCC3)c2F)CC4)CCN1C` [Example 98, (R)-3-fluoro-4-(8-(3-(methoxymethyl)-4-methylpiperazin-1-yl)-7,10-dimethyl-5-oxo-1,3,4,5-tetrahydro-2H-chromeno[3,4-c]pyridine-3-carbonyl)-2-(pyrrolidin-1-yl)-N-(pyrrolidin-1-ylsulfonyl)benzamide], the figures for the IC50 in test [1], in test [2] and in test [3] were 10 to 100 nM, 1 to 10 nM and 10 to 30 nM, respectively. Besides, the “MTHFD1/MTHFD2 IC50 ratio” value in test [2] is given as “F (<3)”.
Turning to `COC[C@H]1CN(c2cc(C)c3c4c(c(=O)oc3c2C)CN(C(=O)c2cc(OC3CCCC3)c(C(=O)NS(=O)(=O)C3(C)CC3)c(C(F)(F)F)c2)CC4)CCN1C` [Example 128, (R)-2-(cyclopentyloxy)-4-(8-(3-(methoxymethyl)-4-methylpiperazin-1-yl)-7,10-dimethyl-5-oxo-1,3,4,5-tetrahydro-2H-chromeno[3,4-c]pyridine-3-carbonyl)-N-((1-methylcyclopropyl)sulfonyl)-6-(trifluoromethyl)benzamide], the IC50 in test [1] was 1000 to 5000 nM; in test [2], 10 to 100 nM; in test [3], 1000 to 5000 nM. Besides, the “MTHFD1/MTHFD2 IC50 ratio” value in test [2] is “H (>9.0 to 30)”.
Consider `COC[C@H]1CN(c2cc(C)c3c4c(c(=O)oc3c2C)CN(C(=O)c2cc(OC3CCCC3)c(C(=O)NS(=O)(=O)N3CCCC3)c(C(F)(F)F)c2)CC4)CCN1C` [Example 129, (R)-2-(cyclopentyloxy)-4-(8-(3-(methoxymethyl)-4-methylpiperazin-1-yl)-7,10-dimethyl-5-oxo-1,3,4,5-tetrahydro-2H-chromeno[3,4-c]pyridine-3-carbonyl)-N-(pyrrolidin-1-ylsulfonyl)-6-(trifluoromethyl)benzamide], for which the IC50 in test [1] lay within 1000 to 5000 nM; in test [2] it was 10 to 100 nM; in test [3], 100 to 1000 nM. Also, the “MTHFD1/MTHFD2 IC50 ratio” value in test [2] was “J (>30)”.
For `COC[C@H]1CN(c2cc(C)c3c4c(c(=O)oc3c2C)CN(C(=O)c2cc(OC3CCC3)c(C(=O)NS(=O)(=O)C3(C)CC3)c(C(F)(F)F)c2)CC4)CCN1C` [Example 130, (R)-2-cyclobutoxy-4-(8-(3-(methoxymethyl)-4-methylpiperazin-1-yl)-7,10-dimethyl-5-oxo-1,3,4,5-tetrahydro-2H-chromeno[3,4-c]pyridine-3-carbonyl)-N-((1-methylcyclopropyl)sulfonyl)-6-(trifluoromethyl)benzamide], the IC50 in test [1] lay in the range of 1000 to 5000 nM; in test [2] it was 10 to 100 nM; in test [3], 1000 to 5000 nM. Also, the “MTHFD1/MTHFD2 IC50 ratio” value in test [2] was “J (>30)”.
Consider `COC[C@H]1CN(c2cc(Cl)c3c4c(c(=O)oc3c2C)CN(C(=O)c2cc(OC3CC3)c(C(=O)NS(=O)(=O)N3C5CCC3COC5)cc2F)CC4)CCN1C` [Example 307, N-((3-oxa-8-azabicyclo[3.2.1]octan-8-yl)sulfonyl)-4-(10-chloro-8-((R)-3-(methoxymethyl)-4-methylpiperazin-1-yl)-7-methyl-5-oxo-1,3,4,5-tetrahydro-2H-chromeno[3,4-c]pyridine-3-carbonyl)-2-cyclopropoxy-5-fluorobenzamide], for which the IC50 in test [1] fell in the range of 1000 to 5000 nM; in test [2], 10 to 100 nM.
As to `COC[C@H]1CN(c2cc(F)c3c4c(c(=O)oc3c2C)CN(C(=O)c2cc(OC)c(C(=O)NS(=O)(=O)N3CCCC3)cc2F)CC4)CCN1C` [Example 309, (R)-5-fluoro-4-(10-fluoro-8-(3-(methoxymethyl)-4-methylpiperazin-1-yl)-7-methyl-5-oxo-1,3,4,5-tetrahydro-2H-chromeno[3,4-c]pyridine-3-carbonyl)-2-methoxy-N-(pyrrolidin-1-ylsulfonyl)benzamide], the IC50 in test [1] is 1000 to 5000 nM. For the same compound, in test [2], the IC50 is 10 to 100 nM and the “MTHFD1/MTHFD2 IC50 ratio” value was “J (>30)”.
`CCOc1cc(C(=O)N2CCc3c(c(=O)oc4c(C)c(N5CCN(C)[C@@H](COC)C5)cc(Cl)c34)C2)c(F)cc1C(=O)NS(=O)(=O)N1C2CCC1CC2` [Example 317, (R)-N-((7-azabicyclo[2.2.1]heptan-7-yl)sulfonyl)-4-(10-chloro-8-(3-(methoxymethyl)-4-methylpiperazin-1-yl)-7-methyl-5-oxo-1,3,4,5-tetrahydro-2H-chromeno[3,4-c]pyridine-3-carbonyl)-2-ethoxy-5-fluorobenzamide]: the IC50 in test [1] lay within 100 to 1000 nM. In test [2], the IC50 was in the range of 10 to 100 nM and the “MTHFD1/MTHFD2 IC50 ratio” value is “J (>30)”.
In the case of `COC[C@H]1CN(c2cc(Cl)c3c4c(c(=O)oc3c2C)CN(C(=O)c2cc(N(C)C)c(C(=O)NS(=O)(=O)N(C)C3CC3)cc2F)CC4)CCN1C` [Example 323, (R)-4-(10-chloro-8-(3-(methoxymethyl)-4-methylpiperazin-1-yl)-7-methyl-5-oxo-1,3,4,5-tetrahydro-2H-chromeno[3,4-c]pyridine-3-carbonyl)-N-(N-cyclopropyl-N-methylsulfamoyl)-2-(dimethylamino)-5-fluorobenzamide], the IC50 in test [1] was in the range of 100 to 1000 nM; in test [2], 1 to 10 nM. Also, in test [2], the “MTHFD1/MTHFD2 IC50 ratio” value is recorded as “J (>30)”.
